Source: the CheMixHub viscosity set
“And” between values parts separate entries of the source, which are not always exact repeats. Equal values may be shown once.

Test: xn = mol fraction of the nth substance listed

CCCCOC(C)=O + O
303.15 K, 101 kPa
Settings | viscosity [mPa·s]
x2 = 0.0201 | 0.64
x2 = 0.04 | 0.641
x2 = 0.0599 | 0.639

CCCN(CCC)C(C)=O + O
298.16 K, 101 kPa
Settings | viscosity [mPa·s]
x2 = 0.0688 | 2.38
x2 = 0.1822 | 2.71
x2 = 0.3049 | 3.12
x2 = 0.4342 | 3.66
x2 = 0.5515 | 4.26
x2 = 0.6896 | 4.87
x2 = 0.74 | 4.95
x2 = 0.762 | 4.95
x2 = 0.7891 | 4.88
x2 = 0.8742 | 3.94
x2 = 0.9163 | 2.96

C[NH2+]C(C)Cc1ccc2c(c1)OCO2.[Cl-] (stereo unspecified) + O
viscosity [mPa·s], 100 kPa
Settings | 293.15 K | 298.15 K | 303.15 K | 308.15 K | 313.15 K
x1 = 0.001729 | 1.063 | 0.942 | 0.842 | 0.758 | 0.686
x1 = 0.003622 | 1.125 | 0.995 | 0.888 | 0.798 | 0.721
x1 = 0.00541 | 1.18 | 1.042 | 0.929 | 0.834 | 0.752
x1 = 0.006269 | 1.206 | 1.065 | 0.949 | 0.851 | 0.767
x1 = 0.0072 | 1.233 | 1.088 | 0.969 | 0.869 | 0.783

Cn1c(=O)c2c(ncn2C)n(C)c1=O + O
Settings | viscosity [mPa·s]
293.15 K, 100 kPa, x1 = 0.000362 | 1.007
293.15 K, 100 kPa, x1 = 0.00054 | 1.01
293.15 K, 100 kPa, x1 = 0.00072 | 1.013
293.15 K, 100 kPa, x1 = 0.0009 | 1.018
293.15 K, 100 kPa, x1 = 0.00108 | 1.022
293.15 K, 100 kPa, x1 = 0.00126 | 1.027
293.15 K, 100 kPa, x1 = 0.00144 | 1.031
298.15 K, 100 kPa, x1 = 0.000362 | 0.892
298.15 K, 100 kPa, x1 = 0.00054 | 0.897
298.15 K, 100 kPa, x1 = 0.00072 | 0.901
298.15 K, 100 kPa, x1 = 0.0009 | 0.903
298.15 K, 100 kPa, x1 = 0.00144 | 0.916
298.15 K, 101 kPa, x1 = 9.11e-06 | 0.8903
298.15 K, 101 kPa, x1 = 1.822e-05 | 0.8906
298.15 K, 101 kPa, x1 = 7.288e-05 | 0.8912
298.15 K, 101 kPa, x1 = 0.0001457 | 0.8921
298.15 K, 101 kPa, x1 = 0.0001858 | 0.8928
298.15 K, 101 kPa, x1 = 0.0002 | 0.8925
298.15 K, 101 kPa, x1 = 0.0002277 | 0.8933
298.15 K, 101 kPa, x1 = 0.00045 | 0.8973
298.15 K, 101 kPa, x1 = 0.0004553 | 0.8967
298.15 K, 101 kPa, x1 = 0.000835 | 0.9028
298.15 K, 101 kPa, x1 = 0.0009102 | 0.904
298.15 K, 101 kPa, x1 = 0.00168 | 0.9204
298.15 K, 101 kPa, x1 = 0.001827 | 0.9238
303.15 K, 100 kPa, x1 = 0.000362 | 0.799
303.15 K, 100 kPa, x1 = 0.00054 | 0.802
303.15 K, 100 kPa, x1 = 0.00072 | 0.805
303.15 K, 100 kPa, x1 = 0.0009 | 0.809
303.15 K, 100 kPa, x1 = 0.00108 | 0.812
303.15 K, 100 kPa, x1 = 0.00126 | 0.815
303.15 K, 100 kPa, x1 = 0.00144 | 0.819
308.15 K, 100 kPa, x1 = 0.000362 | 0.72
308.15 K, 100 kPa, x1 = 0.00072 | 0.725
308.15 K, 100 kPa, x1 = 0.00144 | 0.738
308.15 K, 101 kPa, x1 = 0.0002 | 0.7216
308.15 K, 101 kPa, x1 = 0.000508 | 0.7219
308.15 K, 101 kPa, x1 = 0.000835 | 0.7263
308.15 K, 101 kPa, x1 = 0.00106 | 0.7314
308.15 K, 101 kPa, x1 = 0.00168 | 0.7421
308.15 K, 101 kPa, x1 = 0.001827 | 0.7443
310.15 K, 101 kPa, x1 = 9.11e-06 | 0.6928
310.15 K, 101 kPa, x1 = 1.822e-05 | 0.6933
310.15 K, 101 kPa, x1 = 7.288e-05 | 0.6952
310.15 K, 101 kPa, x1 = 0.0001457 | 0.6977
310.15 K, 101 kPa, x1 = 0.0001858 | 0.6998
310.15 K, 101 kPa, x1 = 0.0002277 | 0.7014
310.15 K, 101 kPa, x1 = 0.0004553 | 0.7104
310.15 K, 101 kPa, x1 = 0.0009102 | 0.7283
313.15 K, 100 kPa, x1 = 0.000362 | 0.652
313.15 K, 100 kPa, x1 = 0.00054 | 0.655
313.15 K, 100 kPa, x1 = 0.00072 | 0.657
313.15 K, 100 kPa, x1 = 0.0009 | 0.66
313.15 K, 100 kPa, x1 = 0.00108 | 0.663
313.15 K, 100 kPa, x1 = 0.00126 | 0.665
313.15 K, 100 kPa, x1 = 0.00144 | 0.669
318.15 K, 101 kPa, x1 = 0.0002 | 0.5982
318.15 K, 101 kPa, x1 = 0.000508 | 0.6031
318.15 K, 101 kPa, x1 = 0.000835 | 0.6101
318.15 K, 101 kPa, x1 = 0.00106 | 0.6182
318.15 K, 101 kPa, x1 = 0.00139 | 0.6272
318.15 K, 101 kPa, x1 = 0.00168 | 0.6353
318.15 K, 101 kPa, x1 = 0.001827 | 0.6393

NC(=O)C[C@H](N)C(=O)O + O
viscosity, 101 kPa
Settings | x1 = 0.00045 | x1 = 0.0009 | x1 = 0.001 | x1 = 0.00135 | x1 = 0.001798 | x1 = 0.002247 | x1 = 0.002695 | x1 = 0.003
293.15 K | 1.01 mPa·s | 1.018 mPa·s | 1.015 mPa·s | 1.025 mPa·s | 1.033 mPa·s | 1.041 mPa·s | 1.049 mPa·s | 1.033 mPa·s
298.15 K | 0.8972 mPa·s | 0.9037 mPa·s | 0.9105 mPa·s | 0.9104 mPa·s | 0.917 mPa·s | 0.9236 mPa·s | 0.9301 mPa·s | 0.9306 mPa·s
303.15 K | 0.8033 mPa·s | 0.8089 mPa·s | 0.8147 mPa·s | 0.8146 mPa·s | 0.8202 mPa·s | 0.8258 mPa·s | 0.8314 mPa·s | 0.8318 mPa·s and 0.8318 mPa·s
308.15 K | 0.7243 mPa·s | 0.7292 mPa·s | 0.734 mPa·s and 0.734 mPa·s | 0.734 mPa·s | 0.7388 mPa·s | 0.7436 mPa·s | 0.7484 mPa·s | 0.7488 mPa·s
313.15 K | 0.6573 mPa·s | 0.6615 mPa·s | 0.6657 mPa·s | 0.6657 mPa·s | 0.6699 mPa·s | 0.674 mPa·s | 0.6782 mPa·s | 0.6785 mPa·s
318.15 K | 0.6013 mPa·s | 0.605 mPa·s | 0.6087 mPa·s | 0.6087 mPa·s | 0.6123 mPa·s | 0.6159 mPa·s | 0.6195 mPa·s | 0.6198 mPa·s

Nc1ncnc2[nH]cnc12 + O
viscosity [mPa·s], 101.3 kPa
Settings | 293.15 K | 298.15 K | 303.15 K | 308.15 K | 313.15 K | 318.15 K
x1 = 9.33e-05 | 1.006 | 0.895 | 0.803 | 0.738 | 0.623 | 0.595
x1 = 0.0001925 | 1.009 | 0.898 | 0.806 | 0.741 | 0.626 | 0.598
x1 = 0.0002792 | 1.011 | 0.9 | 0.808 | 0.743 | 0.628 | 0.6
x1 = 0.0003724 | 1.013 | 0.902 | 0.81 | 0.745 | 0.63 | 0.602
x1 = 0.0004489 | 1.015 | 0.904 | 0.812 | 0.747 | 0.632 | 0.604
x1 = 0.0005443 | 1.017 | 0.906 | 0.814 | 0.749 | 0.634 | 0.606

O=[PH2][O-].[Na+] + O
Settings | viscosity [mPa·s]
298.15 K, 101 kPa, x1 = 0.2095 | 4.83

O=c1[nH]c2nc(O)nc(O)c2[nH]1 + O
viscosity [mPa·s], 101.3 kPa
Settings | 298.15 K | 303.15 K | 308.15 K | 313.15 K
x1 = 1e-06 | 0.9 | 0.82 | 0.73 | 0.63
x1 = 2e-06 | 0.9 | 0.83 | 0.75 | 0.65
x1 = 3e-06 | 0.91 | 0.84 | 0.76 | 0.66

[Cl-].[Cl-].[Mn+2] + O
Settings | viscosity [mPa·s]
298.15 K, 101.33 kPa, x1 = 0.09931 | 8.35

[K+].[OH-] + O
323.15 K, 101 kPa
Settings | viscosity [mPa·s]
x1 = 0.009 | 0.586
x1 = 0.026 | 0.67
x1 = 0.059 | 0.853
x1 = 0.08 | 1.01
x1 = 0.1 | 1.26
x1 = 0.2 | 1.75
x1 = 0.21 | 2.84
x1 = 0.3 | 4.62

O=C(O)c1ccco1 + O=C1CCCCCN1
101 kPa, x2 = 0.5
Settings | viscosity [mPa·s]
303.1 K | 179.6
313.2 K | 79.63
323.1 K | 44.44
